Test results: patent US20100099314A1, “IONIC LIQUIDS DERIVED FROM SURFACTANTS” (priority 2004, published 2010)

Assay: Water Miscibility Test
Assay type: physicochemical
Settings: 0.5 g ionic liquid and 4.5 g de-ionized water, sonicated 1.5 hours; miscible if homogenous transparent system within 15 minutes of standing
Method: The water miscibility of an ionic liquid is measured by the following water miscibility test. A mixture of 0.5 g ionic liquid and 4.5 g de-ionized water are sonicated in a Bransonic Ultrasonic Bath (model# 1210R-MTH, 50/60 Hz, 117 volts, 1.3 AMPS) according to manufacture's specifications for 1.5 hours. Thereafter, if a homogenous transparent system results within 15 minutes of standing without agitation, then the ionic liquid is water miscible.

Structure (SMILES)	Water Miscible?
CC(C)CC(C)CC(CC(C)C)OCCOCCOCCOS(=O)(=O)[O-].CCCCCCCCCCCC[N+](C)(C)O (centres unmarked) [Example 1, N-dodecyl-N,N-dimethylamine N-oxide 2,4,8-trimethylnonyl-6-triethoxysulfate]	No
CCCCCCCCCCCCOCCOS(=O)(=O)[O-].CCCCCCCCCCCC[N+](C)(C)O [Example 2, N-dodecyl-N,N-dimethylamine N-oxide dodecylethoxysulfate]	No
